Measurements: paper PMC6289942, “Development of a NS2B/NS3 protease inhibition assay using AlphaScreen® beads for screening of anti-dengue activities” (Heliyon, 2018)
Read-outs that look alike come from different tables or passages of the source. Where a SMILES comes first, the peptide text is derived from it. [ ]: non-standard residue; d: D form. The star is where a group is joined. Sta = CC(C)C[C@H](N)[C@@H](O)CC(=O)O; Isovaleryl = CC(C)CC(=O)*

Legend:
dengue NS2B/NS3 protease = system: dengue NS2B/NS3 protease; set-up: method as in PMID 11581268; conditions: cited from earlier work
DENV2 protease = system: DENV2 protease; set-up: method as in PMID 16621533; conditions: cited from earlier work; for inhibition of protease activity: 80 ppm (200 μM) ref 21; for Ki: protease assay ref 21
[1] = Solubility of compounds for screening (DMSO stock); format: physicochemical; conditions: needed 10% v/v DMSO in the assay
NS2B/NS3 protease [2] = molecular target: T1, NS2B/NS3 protease (Dengue virus type 2, UniProt P14340); assay: NS2B/NS3 protease inhibition assay using AlphaScreen beads; format: biochemical
T1 construct: active site of the serine protease domain of the NS2B/NS3 protease; made in house; host or cells: Escherichia coli XL 1-Blue MRF
Procedure: The peptide substrate used in this assay has a known NS2B/NS3 cleavage site between lysine (K), and serine (S) (GRK ↓ SLT), and is a part of a sequence of dengue polyprotein precursor (NS3/NS4A) as reported by Khumtong and co-workers. The peptide substrate was tagged with a specific sequence ([…]) at N-terminal and polyhistidine at C-terminal. This specific sequence has a binding affinity towards StrepTactin®, an engineered streptavidin [37]. Glycine linkers were added on both sides of untagged peptide substrate (Fig. 1a and b). To determine the extent of N-terminal labelling on the peptide substrate, competitive displacement assay using AlphaScreen® TruHits Detection Kit (Perkin Elmer, USA) consisting of StrepTactin® donor beads and biotinylated acceptor beads was carried out. On the other hand, to ensure that the peptide substrate is adequately tagged with polyhistidine on the C-terminal, competitive binding assay using Histidine (Nickel Chelate) Detection Kit (Perkin Elmer, USA) was carried out. This kit comprises of both StrepTactin® donor beads and nickel chelate acceptor beads.
In general, AlphaScreen® experiments were carried out in white 384-well plates (Perkin Elmer, Boston, MA, USA) in a total reaction volume of 25 μL under subdued light. […] The 384-well plate was read using Envision 2104 Multilabel Plate Reader (Perkin Elmer, Boston, MA, USA) according to AlphaScreen® settings (excitation and emission wavelength at 680nm and 520-620nm, respectively). […] After incubating for 1 h, 5 μL of donor beads and acceptor beads were added, followed by 1 h incubation at room temperature prior to reading of signal. […] The optimum conditions were determined based on the maximum signal obtained from well containing peptide alone and minimum signal produced by well containing peptide substrate, enzyme and beads, indicating maximum cleavage of the NS2B/NS3 enzyme on the substrate and lowest background signal. […] Since the amount obtained for diversity 0713 was in minute quantity and was insufficient for subsequent testing, diversity 0713 was not used as control in this study. […]

NS2B/NS3 protease [3] = molecular target: T1, NS2B/NS3 protease; assay: Protease assay using fluorogenic peptide substrate (BOC-Gly-Arg-Arg-AMC); format: biochemical
Procedure: Dengue NS2B/NS3 protease enzyme was expressed and purified as previously described. Briefly, NS2B/NS3 expression plasmid was propagated in Escherichia coli strain XL 1-Blue MRF (Agilent Technologies, Santa Clara, CA).The enzyme was isolated and purified using Ni^2+-NTA (nickel-nitrilotriacetic acid) resin-based column. The specific proteolytic activity of NS2B/NS3 protease was determined using similar formula as published for other proteases. Protease assay using fluorogenic peptide susbtrate (BOC-Gly-Arg-Arg-AMC) was also used to determine the NS2B/NS3 inhibition activities of the controls and derivatives. […] Cleavage of the substrate by NS2B/NS3 protease and detection of the fluorescence signal were determined using Envision 2104 Multilabel Plate Reader (Perkin Elmer, Boston, MA, USA) at excitation and emission wavelength of 385 nm and 465 nm, respectively. […]
IC50 values were derived based on non-linear regression analysis computed using GraphPad Prism 5.0 (GraphPad Software, La Jolla, CA, USA). […] The zʹ factor was calculated as described by Zhang and co-workers. zʹ factor = 1–3×(σH+σL)/|μH−μL|, where σH and σL represent the standard deviations of the AlphaScreen® signal of the substrate in the absence (high signal, H) and presence (low signal, L) of the protease, and μH and μL represent the mean values of high signal and low signal, respectively. […]

T1 sequence (P14340 1476-1653): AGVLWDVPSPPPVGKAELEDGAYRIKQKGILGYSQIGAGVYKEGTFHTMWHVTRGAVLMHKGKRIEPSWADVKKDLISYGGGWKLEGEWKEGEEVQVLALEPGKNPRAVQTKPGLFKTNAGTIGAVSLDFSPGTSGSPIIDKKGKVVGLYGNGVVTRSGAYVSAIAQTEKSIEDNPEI
T1 sequence (P14340 1346-1475): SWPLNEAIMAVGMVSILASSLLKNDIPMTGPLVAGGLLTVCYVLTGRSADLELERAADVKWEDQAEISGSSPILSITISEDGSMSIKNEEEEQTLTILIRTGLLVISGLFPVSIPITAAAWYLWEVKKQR

Molecule: Cl.N=C(N)c1ccc(CS(=O)(=O)F)cc1 [4-Amidinophenylmethanesulfonyl fluoride.hydrochloride]
- enzyme inhibition (in words) (dengue NS2B/NS3 protease): no enzyme inhibition

Molecule: CC(C)=CC[C@@H]1C(C)=CC[C@@H](c2ccccc2)[C@@H]1C(=O)c1c(O)cc(O)cc1O [4-hydroxypanduratin A]
- inhibition of protease activity (DENV2 protease): 65–80%
- Ki (DENV2 protease): 21 µM

Molecule: CC(C)CC(=O)N[C@H](C(=O)N[C@H](C(=O)N[C@@H](CC(C)C)[C@@H](O)CC(=O)N[C@@H](C)C(=O)N[C@@H](CC(C)C)[C@@H](O)CC(=O)O)C(C)C)C(C)C [pepstatin A] (Isovaleryl-VV[Sta]A[Sta]-OH)
- enzyme inhibition (in words) (dengue NS2B/NS3 protease): no enzyme inhibition

Molecule: c1ccc(CNc2nc(SCc3ccccc3)c3ncn(Cc4ccccc4)c3n2)cc1 [Compound 10, N, 9-dibenzyl-6-(benzylsulfanyl)-9H-purin-2-amine]
- solubility (in words) [1]: low solubility

Molecule: Cc1ccc(S(=O)(=O)N[C@@H](Cc2ccccc2)C(=O)CCl)cc1 [N-Tosyl-L-phenylalanine chloromethyl ketone]
- inhibition of enzyme (dengue NS2B/NS3 protease; 1 mM ref 59): 20–30%

Molecule: CC(=O)N[C@@H](CC(C)C)C(=O)N[C@@H](CC(C)C)C(=O)N[C@H](C=O)CCCNC(=N)N [leupeptin]
- enzyme inhibition (in words) (dengue NS2B/NS3 protease): no enzyme inhibition

Molecule: Cl.NCCc1ccc(S(=O)(=O)F)cc1 [4-(2-aminoethyl) benzenesulfonyl fluoride.hydrochloride]
- inhibition of enzyme (dengue NS2B/NS3 protease; 500 μM ref 59): 20–30%

Molecule: Nc1nc(SCc2ccccc2)c2[nH]cnc2n1 [Compound 8, 6-(benzylsulfanyl)-9H-purin-2-amine]
- solubility (in words) [1]: low solubility

Molecule: Fc1ccc(C=Nc2nc(S)c3nc[nH]c3n2)cc1 [Compound 12, 2-(4-fluorobenzylideneamino)-9H-purine-6-thiol]
- solubility (in words) [1]: low solubility

Molecule: Nc1nc(SCc2ccccc2)c2ncn(Cc3ccccc3)c2n1 [Compound 9, 9-benzyl-6-(benzylsulfanyl)-9H-purin-2-amine]
- solubility (in words) [1]: low solubility

Molecule: O=S(=O)(F)Cc1ccccc1 [phenylmethylsulfonyl fluoride]
- enzyme inhibition (in words) (dengue NS2B/NS3 protease): no enzyme inhibition

Molecule: Aprotinin
- IC50 (NS2B/NS3 protease [2]; AlphaScreen assay, read-out: IC50): 0.35 µM
- IC50 (NS2B/NS3 protease [3]; protease assay, fluorogenic substrate, 1 h at 37 °C, read-out: IC50): 0.15 µM
- IC50 (dengue NS2B/NS3 protease; published value, different assay system ref 59): 0.065 µM

Molecule: Cc1ccc(S(=O)(=O)N[C@@H](CCCCN)C(=O)CCl)cc1.Cl [N-Tosyl-L-lysine chloromethyl ketone.hydrochloride]
- enzyme inhibition (in words) (dengue NS2B/NS3 protease): no enzyme inhibition

Molecule: COc1cc(O)c(C(=O)[C@@H]2[C@H](CC=C(C)C)C(C)=CC[C@H]2c2ccccc2)c(O)c1 [Panduratin A]
- IC50 (NS2B/NS3 protease [2]): > 100 µM
- inhibition at 100 µM (NS2B/NS3 protease [2]; 100 μM, AlphaScreen assay, read-out: maximum inhibition at the highest concentration tested): > 50%
- IC50 (NS2B/NS3 protease [3]): 211 µM
- inhibition of protease activity (DENV2 protease): 65–80%
- Ki (DENV2 protease): 25 µM

Molecule: N=C(N)c1ccccc1 [benzamidine]
- enzyme inhibition (in words) (dengue NS2B/NS3 protease): no enzyme inhibition

Molecule: c1ccc(CSc2nc(N(Cc3ccccc3)Cc3ccccc3)nc3c2ncn3Cc2ccccc2)cc1 [Compound 11, N, N, 9-tribenzyl-6-(benzylsulfanyl)-9H-purin-2-amine]
- solubility (in words) [1]: low solubility

B1: soybean trypsin inhibitor: serine protease inhibitor (protein, UniProt P01070 25-205, looked up)
Trypsin inhibitor A: DFVLDNEGNPLENGGTYYILSDITAFGGIRAAPTGNERCPLTVVQSRNELDKGIGTIISSPYRIRFIAEGHPLSLKFDSFAVIMLCVGIPTEWSVVEDLPEGPAVKIGENKDAMDGWFRLERVSDDEFNNYKLVFCPQQAEDDKCGDIGISIDHDDGTRRLVVSKNKPLVVQFQKLDKESL
- enzyme inhibition (in words) (dengue NS2B/NS3 protease): no enzyme inhibition
